PMC5298231, “The Malaria Parasite's Lactate Transporter PfFNT Is the Target of Antiplasmodial Compounds Identified in Whole Cell Phenotypic Screens” (PLoS Pathogens, 2017)
Like-named read-outs stand apart in the source and are kept apart here.

Test system: erythrocytes infected with 3D7 trophozoites
Format: cell-based, Plasmodium falciparum
Settings: 6 μM

COc1ccc2c(c1)OC(O)(C(F)(F)C(F)(F)F)CC2=O (stereo not shown) [MMV007839]
Serine log2 ratio (+MMV007839/-MMV007839) (Av 3hr): 0.166
Succinate log2 ratio (+MMV007839/-MMV007839) (Av 3hr): -0.2462
Succinate semialdehyde log2 ratio (+MMV007839/-MMV007839) (Av 3hr): -0.7119
TNVK log2 ratio (+MMV007839/-MMV007839) (Av 3hr): -1.745
Threonine log2 ratio (+MMV007839/-MMV007839) (Av 3hr): 0.01502
Tryptophan log2 ratio (+MMV007839/-MMV007839) (Av 3hr): -0.2359
Tyrosine log2 ratio (+MMV007839/-MMV007839) (Av 3hr): -0.01653
UDP log2 ratio (+MMV007839/-MMV007839) (Av 3hr): -0.7159
UDP-N-acetyl-D-glucosamine log2 ratio (+MMV007839/-MMV007839) (Av 3hr): 0.05247
UDP-glucose log2 ratio (+MMV007839/-MMV007839) (Av 3hr): -0.07837
UMP log2 ratio (+MMV007839/-MMV007839) (Av 3hr): -0.2624
Uracil log2 ratio (+MMV007839/-MMV007839) (Av 3hr): -0.6081
Uric Acid log2 ratio (+MMV007839/-MMV007839) (Av 3hr): -0.1135
VD log2 ratio (+MMV007839/-MMV007839) (Av 3hr): 1.073
Valine log2 ratio (+MMV007839/-MMV007839) (Av 3hr): -0.194
Xanthine log2 ratio (+MMV007839/-MMV007839) (Av 3hr): -0.464
dADP log2 ratio (+MMV007839/-MMV007839) (Av 3hr): -1.193
dATP log2 ratio (+MMV007839/-MMV007839) (Av 3hr): -0.03116
dCDP log2 ratio (+MMV007839/-MMV007839) (Av 3hr): 0.3315
dGMP log2 ratio (+MMV007839/-MMV007839) (Av 3hr): 0.1661
dTMP log2 ratio (+MMV007839/-MMV007839) (Av 3hr): 0.1316
dTTP log2 ratio (+MMV007839/-MMV007839) (Av 3hr): -0.08156
dUMP log2 ratio (+MMV007839/-MMV007839) (Av 3hr): 1.365
myo-Inositol log2 ratio (+MMV007839/-MMV007839) (Av 3hr): -0.258
sn-Glycerol 3-phosphate log2 ratio (+MMV007839/-MMV007839) (Av 3hr): 1.559
sn-glycero-3-Phospho-1-inositol log2 ratio (+MMV007839/-MMV007839) (Av 3hr): 0.1698
Hexose-phosphate log2 ratio (+MMV007839/-MMV007839) (Av 3hr, medRt 15.0954): -0.3219
6-Phospho-D-gluconate log2 ratio (+MMV007839/-MMV007839) (Av 3hr, medRt 16.8944): -0.6275
Hexose-phosphate log2 ratio (+MMV007839/-MMV007839) (Av 3hr, medRt 17.0788): -1.577
6-Phospho-D-gluconate log2 ratio (+MMV007839/-MMV007839) (Av 3hr, medRt 17.4636): -0.2282
1-3 (2-3)-diphopshateglycerate log2 ratio (+MMV007839/-MMV007839) (Av 6hr): 0.3636
2-Hydroxyglutarate log2 ratio (+MMV007839/-MMV007839) (Av 6hr): -0.3824
2-Ketoglutarate log2 ratio (+MMV007839/-MMV007839) (Av 6hr): -0.4713
3-Phosho-D-glycerate log2 ratio (+MMV007839/-MMV007839) (Av 6hr): 0.02516
3-Phospho-serine log2 ratio (+MMV007839/-MMV007839) (Av 6hr): -0.6364
4-Aminobutanoate log2 ratio (+MMV007839/-MMV007839) (Av 6hr): 1.092
5-Phosphoribosyl-1-pyrophosphate log2 ratio (+MMV007839/-MMV007839) (Av 6hr): 0.556
ADP log2 ratio (+MMV007839/-MMV007839) (Av 6hr): -0.3027
AMP log2 ratio (+MMV007839/-MMV007839) (Av 6hr): -0.04039
ATLS log2 ratio (+MMV007839/-MMV007839) (Av 6hr): -0.1601
ATP log2 ratio (+MMV007839/-MMV007839) (Av 6hr): -0.3608
Acetyl-CoA log2 ratio (+MMV007839/-MMV007839) (Av 6hr): -0.9886
Acetyl-L-alanine log2 ratio (+MMV007839/-MMV007839) (Av 6hr): -0.3969
Adenine log2 ratio (+MMV007839/-MMV007839) (Av 6hr): -0.7079
Arginine log2 ratio (+MMV007839/-MMV007839) (Av 6hr): 0.2024
Asparagine log2 ratio (+MMV007839/-MMV007839) (Av 6hr): 0.205
Aspartic Acid log2 ratio (+MMV007839/-MMV007839) (Av 6hr): -0.08675
CDP log2 ratio (+MMV007839/-MMV007839) (Av 6hr): -0.2824
CDP-ethanolamine log2 ratio (+MMV007839/-MMV007839) (Av 6hr): -0.09908
CMP log2 ratio (+MMV007839/-MMV007839) (Av 6hr): 0.2839
CTP log2 ratio (+MMV007839/-MMV007839) (Av 6hr): -0.5655
Cholesteryl sulfate log2 ratio (+MMV007839/-MMV007839) (Av 6hr): -0.1903
Citrate log2 ratio (+MMV007839/-MMV007839) (Av 6hr): -0.1627
CoA log2 ratio (+MMV007839/-MMV007839) (Av 6hr): -0.6499
Cyclic AMP log2 ratio (+MMV007839/-MMV007839) (Av 6hr): -1.349
Cytidine log2 ratio (+MMV007839/-MMV007839) (Av 6hr): 0.1751
D-Glucono-1-4-lactone log2 ratio (+MMV007839/-MMV007839) (Av 6hr): 2.219
DALT log2 ratio (+MMV007839/-MMV007839) (Av 6hr): 0.7209
DEVG log2 ratio (+MMV007839/-MMV007839) (Av 6hr): -0.06216
DGLA log2 ratio (+MMV007839/-MMV007839) (Av 6hr): 0.8365
DLS log2 ratio (+MMV007839/-MMV007839) (Av 6hr): -0.1236
Deoxycytidine log2 ratio (+MMV007839/-MMV007839) (Av 6hr): 1.626
Dihydroorotate log2 ratio (+MMV007839/-MMV007839) (Av 6hr): -1.004
ESFG log2 ratio (+MMV007839/-MMV007839) (Av 6hr): 0.5044
EVGG log2 ratio (+MMV007839/-MMV007839) (Av 6hr): -0.2203
Erythrose 4-phosphate log2 ratio (+MMV007839/-MMV007839) (Av 6hr): -0.7036
FAD log2 ratio (+MMV007839/-MMV007839) (Av 6hr): -0.616
FMN log2 ratio (+MMV007839/-MMV007839) (Av 6hr): -0.6137
Farnesyl diphosphate log2 ratio (+MMV007839/-MMV007839) (Av 6hr): -0.2783
Folate log2 ratio (+MMV007839/-MMV007839) (Av 6hr): -0.4942
Fructose-1-6-bisphosphate log2 ratio (+MMV007839/-MMV007839) (Av 6hr): 0.3974
Fructose-6-Phosphate log2 ratio (+MMV007839/-MMV007839) (Av 6hr): -0.1081
GDP log2 ratio (+MMV007839/-MMV007839) (Av 6hr): -0.8963
GDP-mannose log2 ratio (+MMV007839/-MMV007839) (Av 6hr): -1.076
GMP log2 ratio (+MMV007839/-MMV007839) (Av 6hr): -0.8795
GTP log2 ratio (+MMV007839/-MMV007839) (Av 6hr): -0.6956
Geranylgeranyl pyrophosphate log2 ratio (+MMV007839/-MMV007839) (Av 6hr): -0.7121
Gluconate log2 ratio (+MMV007839/-MMV007839) (Av 6hr): -0.0152
Glucose-6-Phosphate log2 ratio (+MMV007839/-MMV007839) (Av 6hr): -0.5083
Glutamate log2 ratio (+MMV007839/-MMV007839) (Av 6hr): -0.02563
Glutamine log2 ratio (+MMV007839/-MMV007839) (Av 6hr): 1.089
Glutathione disulfide log2 ratio (+MMV007839/-MMV007839) (Av 6hr): -0.1925
Glutathione log2 ratio (+MMV007839/-MMV007839) (Av 6hr): -0.4326
Glyceraldehyde 3-phosphate log2 ratio (+MMV007839/-MMV007839) (Av 6hr): -1.148
Glycerone phosphate log2 ratio (+MMV007839/-MMV007839) (Av 6hr): -0.3794
HLD log2 ratio (+MMV007839/-MMV007839) (Av 6hr): 0.5581
HVDD log2 ratio (+MMV007839/-MMV007839) (Av 6hr): 0.02571
Histidine log2 ratio (+MMV007839/-MMV007839) (Av 6hr): 1.263
Homoserine log2 ratio (+MMV007839/-MMV007839) (Av 6hr): 0.6347
Hydroxy-L-proline log2 ratio (+MMV007839/-MMV007839) (Av 6hr): -0.1227
Hypoxanthine log2 ratio (+MMV007839/-MMV007839) (Av 6hr): 0.2056
IDP log2 ratio (+MMV007839/-MMV007839) (Av 6hr): 0.2522
IMP log2 ratio (+MMV007839/-MMV007839) (Av 6hr): -0.2109
Inosine log2 ratio (+MMV007839/-MMV007839) (Av 6hr): 0.5174
Isoleucine log2 ratio (+MMV007839/-MMV007839) (Av 6hr): 0.1143
LD log2 ratio (+MMV007839/-MMV007839) (Av 6hr): 0.1248
Lactate log2 ratio (+MMV007839/-MMV007839) (Av 6hr): 2.505
Leucine log2 ratio (+MMV007839/-MMV007839) (Av 6hr): 0.06585
Lysine log2 ratio (+MMV007839/-MMV007839) (Av 6hr): 1.1316
Malate log2 ratio (+MMV007839/-MMV007839) (Av 6hr): -0.236
Mannitol log2 ratio (+MMV007839/-MMV007839) (Av 6hr): -0.1109
Methionine log2 ratio (+MMV007839/-MMV007839) (Av 6hr): -0.2224
Myristic acid log2 ratio (+MMV007839/-MMV007839) (Av 6hr): -0.7184
N-Acetyl-glutamate log2 ratio (+MMV007839/-MMV007839) (Av 6hr): -1.091
N-Carbamoyl-L-aspartate log2 ratio (+MMV007839/-MMV007839) (Av 6hr): -1.386
NAD+ log2 ratio (+MMV007839/-MMV007839) (Av 6hr): 0.1336
